Experimental data reported in patent US20240374692A1, “A NOVEL ACYLATED INSULIN ANALOG” (SUNSHINE LAKE PHARMA CO., LTD., priority 2021, published 2024).

Legend:
normal C57BL/6 mice = assay: Hypoglycemic effect, single subcutaneous administration to normal C57BL/6 mice; format: in vivo; parameters: blood glucose: unit not given here; conditions: for blood glucose / effective blood glucose control time / time after administration at which blood glucose reached the lowest level / time after administration at which blood glucose returned to normal: Degludec 200 nmol/Kg, others 1400 nmol/Kg; for blood glucose: Mean ± SEM, n = 6; for blood glucose compared with the control group: 1 h after single S.C. administration
Procedure: SPF grade C57BL/6 mice were reared in a suitable rearing box in a barrier environment, with a rearing temperature of 20-26° C., a humidity of 40-70%, a time between day and night of 12 h/12 h, and the mice had free access to standard food and autoclaved sterilization water. After a 3-day quarantine period and a 2-day acclimation period, random blood glucose was measured and mice were weighed. Mice were divided into 6 groups according to random blood glucose and body weight.
Single subcutaneous administration (S.C.) was used to administer the corresponding vehicle or drug. The control group was administered the vehicle PBS without fasting during the whole process, and the animals were allowed to eat and drink freely. Random blood glucose values of C57 mice were measured before administration and at 0.25, 0.5, 1, 2, 4, 6, 8, 10, 24, 48, 54, 72 and 96 hours after administration.
All raw data were entered into Excel files and expressed as Mean±SEM. Statistical analysis of data was performed using Graphpad Prism 7.0 software, one-way or two-way ANOVA comparison method, and P<0.05 was used as the criterion for significant differences.

insulin receptor B = molecular target: T1, insulin receptor B (Homo sapiens, UniProt P06213); assay: Insulin receptor B autophosphorylation in transfected cells (Cisbio Phospho-IR beta Tyr1150/1151 kit); format: cell-based; conditions: for Relative HI activity: relative to human insulin
T1 construct: expressed in transfected cells
Procedure: The phosphorylation level of insulin receptor B was detected by Cisbio's Phospho-IR beta (Tyr1150/1151) kit method to evaluate the biological activity of insulin. The cells were seeded into a 96-well plate overnight, and after the serum in the medium was removed, 40 μl of serum-free medium was added to culture for about 4 h. Then a dilution series of insulin derivatives were prepared with blank solution (0.6% casein, 0.06 mg/mL EDTA, 1×DPBS) and incubated with cells in the 96-well plate for 5 min in a CO2 incubator (37° C., 5% CO2). The liquid in the 96-well plate was poured off, 100 µL of a mixture of lysis buffer (2% Triton X-100, 150 mM NaCl, 50 mM HEPES, pH=7) and inhibitor (Blocking Reagent in the kit) was added to lyse the cells, then the plate was shaken at 350 rpm for 30 min. Relative activity (in percent (%)) was assessed by measuring insulin receptor phosphorylation levels in the supernatant after cell lysis and fitting a curve to the data using nonlinear regression in Graphpad Prism 5 software. Related assays were also used, in which the blank solution also contained 1.5% HSA to simulate physiological conditions. Changes in the phosphorylation levels of the insulin-activated insulin receptors of the invention were detected as an indirect reflection of the albumin binding activity.

[1] = 0 h (before administration), single S.C.

T1 sequence (P06213 28-758 limits assumed): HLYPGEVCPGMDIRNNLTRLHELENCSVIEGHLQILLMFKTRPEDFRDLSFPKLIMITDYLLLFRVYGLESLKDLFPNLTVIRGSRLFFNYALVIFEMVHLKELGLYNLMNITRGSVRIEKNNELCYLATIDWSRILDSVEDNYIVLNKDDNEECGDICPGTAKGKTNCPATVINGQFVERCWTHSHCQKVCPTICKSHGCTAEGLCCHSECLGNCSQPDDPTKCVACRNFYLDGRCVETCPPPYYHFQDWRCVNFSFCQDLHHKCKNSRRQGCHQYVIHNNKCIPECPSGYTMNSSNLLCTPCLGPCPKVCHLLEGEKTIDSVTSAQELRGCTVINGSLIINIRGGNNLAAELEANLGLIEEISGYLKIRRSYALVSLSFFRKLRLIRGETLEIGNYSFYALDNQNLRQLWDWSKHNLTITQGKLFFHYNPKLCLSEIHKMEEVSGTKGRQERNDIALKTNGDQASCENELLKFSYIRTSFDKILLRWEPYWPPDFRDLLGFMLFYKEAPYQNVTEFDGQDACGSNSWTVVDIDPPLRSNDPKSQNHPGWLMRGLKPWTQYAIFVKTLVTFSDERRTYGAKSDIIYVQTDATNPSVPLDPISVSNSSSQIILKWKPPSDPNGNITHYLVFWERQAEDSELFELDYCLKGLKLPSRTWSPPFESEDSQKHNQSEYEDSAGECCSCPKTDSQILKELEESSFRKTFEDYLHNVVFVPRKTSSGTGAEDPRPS
T1 sequence (P06213 763-1382 partner limits assumed): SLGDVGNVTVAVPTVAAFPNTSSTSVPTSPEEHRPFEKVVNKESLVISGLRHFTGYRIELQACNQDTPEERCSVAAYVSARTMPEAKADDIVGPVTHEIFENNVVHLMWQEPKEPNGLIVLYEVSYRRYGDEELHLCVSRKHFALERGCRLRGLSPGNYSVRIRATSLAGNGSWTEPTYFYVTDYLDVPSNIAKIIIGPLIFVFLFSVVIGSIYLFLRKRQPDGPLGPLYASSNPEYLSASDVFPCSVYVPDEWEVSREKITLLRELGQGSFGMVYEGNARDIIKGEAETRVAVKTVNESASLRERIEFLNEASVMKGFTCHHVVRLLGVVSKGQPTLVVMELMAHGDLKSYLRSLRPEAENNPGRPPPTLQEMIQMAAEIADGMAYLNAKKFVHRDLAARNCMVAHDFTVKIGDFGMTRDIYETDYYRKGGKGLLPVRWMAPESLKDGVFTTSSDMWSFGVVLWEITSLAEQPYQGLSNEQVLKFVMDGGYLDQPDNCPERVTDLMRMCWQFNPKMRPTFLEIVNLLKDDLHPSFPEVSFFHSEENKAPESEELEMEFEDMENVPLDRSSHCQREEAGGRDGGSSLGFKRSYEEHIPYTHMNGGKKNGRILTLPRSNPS

Substance | blood glucose (normal C57BL/6 mice; [1]) | blood glucose (normal C57BL/6 mice; 0.25 h after single S.C.) | blood glucose (normal C57BL/6 mice; 0.5 h after single S.C.) | blood glucose compared with the control group (normal C57BL/6 mice) | blood glucose (normal C57BL/6 mice; 1 h after single S.C.) | blood glucose (normal C57BL/6 mice; 2 h after single S.C.) | blood glucose (normal C57BL/6 mice; 4 h after single S.C.) | blood glucose (normal C57BL/6 mice; 6 h after single S.C.) | blood glucose (normal C57BL/6 mice; 8 h after single S.C.) | blood glucose (normal C57BL/6 mice; 10 h after single S.C.) | blood glucose (normal C57BL/6 mice; 24 h after single S.C.) | blood glucose (normal C57BL/6 mice; 48 h after single S.C.) | blood glucose (normal C57BL/6 mice; 72 h after single S.C.) | blood glucose (normal C57BL/6 mice; 96 h after single S.C.) | effective blood glucose control time (normal C57BL/6 mice; single S.C.) [h] | time after administration at which blood glucose reached the lowest level (normal C57BL/6 mice; single S.C.) [h] | time after administration at which blood glucose returned to normal (normal C57BL/6 mice; single S.C.) [h] | also measured
A14E, B16E, B25H, B29K(N(ε)-COOH(CH2)16CO-L-Lys-CO(CH2)2CO—(OEG)2), desB30 human insulin analog [Insulin-a4] | 8.0 ± 1.3 | 9.0 ± 1.9 | 6.2 ± 1.6 | decreased significantly | 5.0 ± 0.5 | 4.8 ± 0.5 | 3.9 ± 0.5 | 3.8 ± 1.1 | 3.2 ± 0.6 | 3.0 ± 0.6 | 5.3 ± 1.8 | 8.7 ± 0.9 | 8.0 ± 0.9 | 7.9 ± 1.1 | 48 | 10 | 48 | –
insulin degludec [reference compound] | 7.8 ± 0.8 | 6.5 ± 1.1 | 5.0 ± 0.4 | decreased significantly | 4.7 ± 1.1 | 4.4 ± 1.3 | 5.4 ± 0.6 | 5.4 ± 1.2 | 5.8 ± 0.8 | 5.7 ± 0.9 | 8.3 ± 0.9 | 8.0 ± 0.3 | 8.0 ± 0.8 | 7.9 ± 0.3 | 24 | 2 | 24 | EC50 (insulin receptor B; 0% HSA): 0.00455 µM; Relative HI activity (insulin receptor B; 0% HSA): 27.07%; EC50 (insulin receptor B; 1.5% HSA): 0.0206 µM; Relative 0% HSA activity (insulin receptor B; 1.5% HSA relative to 0% HSA): 22.10%; Relative HI activity (insulin receptor B; 1.5% HSA): 12.59%
